In ChEMBL document CHEMBL5696442, “Discovery of type II inhibitors of TGFβ-activated kinase 1 (TAK1) and mitogen-activated protein kinase kinase kinase kinase 2 (MAP4K2)” (J Med Chem, 2015):
The source made the active and inactive calls. The rule behind the calls is not given here.

Assays:
[1] = test system: Serine/threonine-protein kinase B-raf (Homo sapiens), P15056 [V600E]; experiment: Inhibition of BRAF V600E mutant (unknown origin) at 10 uM by Ambit Kinomescan binding assay relative to control
[2] = target: T1, Mitogen-activated protein kinase kinase kinase 15 (Homo sapiens) (UniProt Q6ZN16); experiment: Inhibition of MAP3K15 Lys1 labeling site harbouring IAIKEIPER in human A-375 cells at 0.05 uM by KiNativ Profiling analysis relative to control; assay type: cell-based
T1 sequence (whole entry): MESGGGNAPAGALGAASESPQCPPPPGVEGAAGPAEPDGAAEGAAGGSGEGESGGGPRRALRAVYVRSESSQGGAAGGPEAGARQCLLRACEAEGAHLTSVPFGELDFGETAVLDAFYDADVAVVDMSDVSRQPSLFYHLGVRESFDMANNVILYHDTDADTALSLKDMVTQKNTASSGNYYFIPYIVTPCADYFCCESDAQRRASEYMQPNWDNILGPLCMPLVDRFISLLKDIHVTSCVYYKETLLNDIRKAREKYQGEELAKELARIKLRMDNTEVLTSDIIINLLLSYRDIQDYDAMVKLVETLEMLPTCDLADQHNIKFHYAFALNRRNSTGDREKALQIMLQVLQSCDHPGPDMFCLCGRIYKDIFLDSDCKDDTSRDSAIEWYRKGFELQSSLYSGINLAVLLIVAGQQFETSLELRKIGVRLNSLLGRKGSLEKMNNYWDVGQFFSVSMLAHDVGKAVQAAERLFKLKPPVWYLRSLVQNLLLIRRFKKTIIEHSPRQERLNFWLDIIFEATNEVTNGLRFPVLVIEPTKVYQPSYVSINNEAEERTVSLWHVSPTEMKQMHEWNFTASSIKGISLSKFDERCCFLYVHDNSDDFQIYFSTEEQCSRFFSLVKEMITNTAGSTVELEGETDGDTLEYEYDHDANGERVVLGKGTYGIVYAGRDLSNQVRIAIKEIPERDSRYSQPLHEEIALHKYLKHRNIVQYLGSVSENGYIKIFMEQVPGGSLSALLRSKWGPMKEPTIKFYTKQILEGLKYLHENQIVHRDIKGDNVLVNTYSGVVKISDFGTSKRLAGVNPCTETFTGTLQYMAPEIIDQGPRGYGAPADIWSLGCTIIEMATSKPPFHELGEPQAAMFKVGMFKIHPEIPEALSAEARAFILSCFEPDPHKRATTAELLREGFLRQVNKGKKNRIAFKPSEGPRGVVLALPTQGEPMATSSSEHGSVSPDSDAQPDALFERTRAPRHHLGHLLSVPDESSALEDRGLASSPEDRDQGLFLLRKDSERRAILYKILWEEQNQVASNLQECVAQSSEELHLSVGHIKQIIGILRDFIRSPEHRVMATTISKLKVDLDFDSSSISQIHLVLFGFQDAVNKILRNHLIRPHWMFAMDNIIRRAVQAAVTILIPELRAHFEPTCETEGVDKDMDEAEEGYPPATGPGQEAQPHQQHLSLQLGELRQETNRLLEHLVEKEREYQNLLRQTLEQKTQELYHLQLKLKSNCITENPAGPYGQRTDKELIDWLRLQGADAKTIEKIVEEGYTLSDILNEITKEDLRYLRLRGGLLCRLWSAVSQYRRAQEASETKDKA

[3] = target: T2, Dual specificity mitogen-activated protein kinase kinase 6 (Homo sapiens) (UniProt P52564); experiment: Inhibition of MAP2K6 K1 labeling site in human Huh-7 cells at 10 uM by KiNativ Profiling analysis relative to control; assay type: cell-based
T2 sequence (whole entry): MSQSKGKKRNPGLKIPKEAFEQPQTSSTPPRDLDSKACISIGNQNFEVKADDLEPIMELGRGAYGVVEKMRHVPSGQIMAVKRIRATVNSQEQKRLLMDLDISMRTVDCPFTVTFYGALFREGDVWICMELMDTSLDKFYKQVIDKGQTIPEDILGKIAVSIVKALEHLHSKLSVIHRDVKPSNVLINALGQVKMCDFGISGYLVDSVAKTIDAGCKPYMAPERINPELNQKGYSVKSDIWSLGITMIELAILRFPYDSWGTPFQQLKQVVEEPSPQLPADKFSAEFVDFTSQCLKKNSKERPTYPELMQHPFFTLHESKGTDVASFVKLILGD

[4] = target: Tyrosine-protein kinase ABL1 (Homo sapiens, UniProt P00519); experiment: Inhibition of ABL Lys1 labeling site in human A-375 cells at 5 uM by KiNativ Profiling analysis relative to control; assay type: cell-based
[5] = target: T3, Serine/threonine-protein kinase tousled-like 1 (Homo sapiens) (UniProt Q9UKI8); experiment: Inhibition of TLK1 (unknown origin) at 10 uM by Ambit Kinomescan binding assay
T3 sequence (whole entry): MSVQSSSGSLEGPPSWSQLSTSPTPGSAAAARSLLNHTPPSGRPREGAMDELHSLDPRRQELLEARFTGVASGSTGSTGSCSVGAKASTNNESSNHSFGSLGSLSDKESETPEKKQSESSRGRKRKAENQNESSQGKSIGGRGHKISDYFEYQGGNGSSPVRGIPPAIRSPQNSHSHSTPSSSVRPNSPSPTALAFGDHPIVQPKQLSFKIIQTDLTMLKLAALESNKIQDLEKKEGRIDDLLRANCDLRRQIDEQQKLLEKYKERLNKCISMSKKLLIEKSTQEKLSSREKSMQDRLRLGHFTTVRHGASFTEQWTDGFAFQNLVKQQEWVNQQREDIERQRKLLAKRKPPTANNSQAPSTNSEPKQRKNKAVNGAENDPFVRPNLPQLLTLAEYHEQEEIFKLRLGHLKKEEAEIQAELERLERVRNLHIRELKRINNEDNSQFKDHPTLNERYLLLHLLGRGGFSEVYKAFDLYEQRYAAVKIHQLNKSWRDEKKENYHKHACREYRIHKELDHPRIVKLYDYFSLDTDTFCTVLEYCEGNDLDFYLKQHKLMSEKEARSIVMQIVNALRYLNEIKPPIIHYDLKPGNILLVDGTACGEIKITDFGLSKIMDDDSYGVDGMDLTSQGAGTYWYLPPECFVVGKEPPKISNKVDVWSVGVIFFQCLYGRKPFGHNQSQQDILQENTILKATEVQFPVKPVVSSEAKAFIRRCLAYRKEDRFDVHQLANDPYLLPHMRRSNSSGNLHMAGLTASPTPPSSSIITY

[6] = target: Calcium/calmodulin-dependent protein kinase type II subunit gamma (Homo sapiens) (UniProt Q13555); experiment: Inhibition of CaMK2g Lys2 labeling site in human Huh-7 cells at 1 uM by KiNativ Profiling analysis relative to control; assay type: cell-based
[7] = target: Calcium/calmodulin-dependent protein kinase type II subunit beta (Homo sapiens) (UniProt Q13554); experiment: Inhibition of CaMK2b Lys2 labeling site in human Huh-7 cell lysate at 1 uM by KiNativ Profiling analysis relative to control; assay type: subcellular
[8] = test system: Epidermal growth factor receptor (Homo sapiens), P00533 [UNDEFINED MUTATION]; experiment: Inhibition of EGFR E746-A750del mutant (unknown origin) at 1 uM by Ambit Kinomescan binding assay relative to control
Sequence of Epidermal growth factor receptor (Homo sapiens), P00533 [UNDEFINED MUTATION] (P00533 whole entry, looked up, stated change not applied): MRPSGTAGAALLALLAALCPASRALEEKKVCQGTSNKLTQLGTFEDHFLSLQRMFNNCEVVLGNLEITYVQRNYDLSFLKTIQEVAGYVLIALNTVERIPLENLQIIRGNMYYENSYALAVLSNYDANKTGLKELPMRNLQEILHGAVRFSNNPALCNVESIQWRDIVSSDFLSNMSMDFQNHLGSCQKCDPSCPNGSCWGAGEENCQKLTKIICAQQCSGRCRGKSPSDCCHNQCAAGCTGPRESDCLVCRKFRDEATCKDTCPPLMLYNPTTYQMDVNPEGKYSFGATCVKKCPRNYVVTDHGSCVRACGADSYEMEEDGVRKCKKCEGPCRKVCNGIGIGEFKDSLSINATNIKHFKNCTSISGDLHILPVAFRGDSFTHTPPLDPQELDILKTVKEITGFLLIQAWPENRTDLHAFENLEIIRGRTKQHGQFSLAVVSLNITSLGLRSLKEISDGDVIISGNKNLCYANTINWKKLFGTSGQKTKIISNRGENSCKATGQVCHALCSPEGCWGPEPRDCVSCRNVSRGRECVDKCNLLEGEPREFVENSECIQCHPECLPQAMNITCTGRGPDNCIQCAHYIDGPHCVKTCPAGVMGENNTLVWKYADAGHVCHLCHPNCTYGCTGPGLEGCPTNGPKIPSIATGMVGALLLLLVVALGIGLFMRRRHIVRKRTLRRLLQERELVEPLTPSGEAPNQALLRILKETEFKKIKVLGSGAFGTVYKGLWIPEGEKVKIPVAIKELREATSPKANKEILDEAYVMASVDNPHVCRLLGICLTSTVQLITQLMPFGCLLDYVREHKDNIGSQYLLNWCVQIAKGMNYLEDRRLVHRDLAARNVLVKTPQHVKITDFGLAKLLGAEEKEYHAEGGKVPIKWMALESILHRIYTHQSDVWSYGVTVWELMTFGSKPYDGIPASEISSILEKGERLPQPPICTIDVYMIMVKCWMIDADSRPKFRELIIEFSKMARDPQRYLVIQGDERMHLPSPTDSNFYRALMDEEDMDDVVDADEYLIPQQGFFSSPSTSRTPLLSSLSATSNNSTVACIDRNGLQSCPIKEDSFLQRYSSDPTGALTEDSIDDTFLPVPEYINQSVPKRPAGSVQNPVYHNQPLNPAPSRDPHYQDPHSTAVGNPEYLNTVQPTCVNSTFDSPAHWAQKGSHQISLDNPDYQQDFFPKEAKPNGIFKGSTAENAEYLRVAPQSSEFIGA

Sequence of Tyrosine-protein kinase ABL1 (P00519 whole entry): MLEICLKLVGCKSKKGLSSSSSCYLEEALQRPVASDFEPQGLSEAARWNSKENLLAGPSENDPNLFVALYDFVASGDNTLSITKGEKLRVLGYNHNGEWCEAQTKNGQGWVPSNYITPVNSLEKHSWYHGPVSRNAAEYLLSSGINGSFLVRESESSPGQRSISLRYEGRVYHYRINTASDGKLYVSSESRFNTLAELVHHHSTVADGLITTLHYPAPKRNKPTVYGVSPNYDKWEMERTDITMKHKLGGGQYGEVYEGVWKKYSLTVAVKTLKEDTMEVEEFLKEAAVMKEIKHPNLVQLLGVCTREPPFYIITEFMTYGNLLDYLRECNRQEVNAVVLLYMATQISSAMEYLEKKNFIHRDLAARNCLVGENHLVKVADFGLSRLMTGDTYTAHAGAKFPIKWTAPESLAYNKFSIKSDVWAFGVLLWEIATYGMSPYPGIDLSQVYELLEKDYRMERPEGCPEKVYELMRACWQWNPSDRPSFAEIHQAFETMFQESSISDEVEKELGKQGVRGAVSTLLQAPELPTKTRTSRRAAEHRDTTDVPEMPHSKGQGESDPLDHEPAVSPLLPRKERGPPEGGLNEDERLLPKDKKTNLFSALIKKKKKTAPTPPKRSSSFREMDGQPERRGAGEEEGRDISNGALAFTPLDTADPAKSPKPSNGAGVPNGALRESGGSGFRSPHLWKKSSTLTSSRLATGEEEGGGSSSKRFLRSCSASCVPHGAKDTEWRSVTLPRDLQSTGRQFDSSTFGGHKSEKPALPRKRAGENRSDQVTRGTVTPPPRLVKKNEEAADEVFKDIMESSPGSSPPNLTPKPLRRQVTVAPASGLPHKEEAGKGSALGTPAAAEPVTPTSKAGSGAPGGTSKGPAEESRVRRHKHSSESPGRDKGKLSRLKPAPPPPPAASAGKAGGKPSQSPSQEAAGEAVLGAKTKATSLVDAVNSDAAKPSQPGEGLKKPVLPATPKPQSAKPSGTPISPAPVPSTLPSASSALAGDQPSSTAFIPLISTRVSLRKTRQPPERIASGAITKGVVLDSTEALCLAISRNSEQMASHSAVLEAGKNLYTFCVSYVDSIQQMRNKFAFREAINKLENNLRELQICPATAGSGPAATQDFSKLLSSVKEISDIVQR
Sequence of Calcium/calmodulin-dependent protein kinase type II subunit beta (Homo sapiens) (Q13554 whole entry): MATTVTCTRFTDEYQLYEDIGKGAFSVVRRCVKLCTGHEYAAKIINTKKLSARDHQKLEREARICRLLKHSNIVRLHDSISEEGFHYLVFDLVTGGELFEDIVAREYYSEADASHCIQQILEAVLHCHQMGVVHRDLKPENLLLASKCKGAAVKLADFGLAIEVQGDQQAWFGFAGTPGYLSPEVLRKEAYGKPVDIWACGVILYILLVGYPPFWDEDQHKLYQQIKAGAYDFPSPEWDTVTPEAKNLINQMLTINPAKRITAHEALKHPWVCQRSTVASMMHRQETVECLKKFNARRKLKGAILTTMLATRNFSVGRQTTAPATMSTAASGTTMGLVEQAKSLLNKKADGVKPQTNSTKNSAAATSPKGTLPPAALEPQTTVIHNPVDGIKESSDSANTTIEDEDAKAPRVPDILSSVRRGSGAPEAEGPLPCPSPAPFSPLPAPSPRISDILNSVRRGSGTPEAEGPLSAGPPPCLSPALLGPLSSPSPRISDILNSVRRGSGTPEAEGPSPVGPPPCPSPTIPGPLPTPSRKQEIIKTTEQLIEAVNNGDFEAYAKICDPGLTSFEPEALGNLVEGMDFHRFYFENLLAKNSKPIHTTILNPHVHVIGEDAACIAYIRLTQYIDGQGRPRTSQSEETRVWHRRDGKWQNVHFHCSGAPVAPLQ
Sequence of Serine/threonine-protein kinase B-raf (Homo sapiens), P15056 [V600E] (P15056 whole entry V600E): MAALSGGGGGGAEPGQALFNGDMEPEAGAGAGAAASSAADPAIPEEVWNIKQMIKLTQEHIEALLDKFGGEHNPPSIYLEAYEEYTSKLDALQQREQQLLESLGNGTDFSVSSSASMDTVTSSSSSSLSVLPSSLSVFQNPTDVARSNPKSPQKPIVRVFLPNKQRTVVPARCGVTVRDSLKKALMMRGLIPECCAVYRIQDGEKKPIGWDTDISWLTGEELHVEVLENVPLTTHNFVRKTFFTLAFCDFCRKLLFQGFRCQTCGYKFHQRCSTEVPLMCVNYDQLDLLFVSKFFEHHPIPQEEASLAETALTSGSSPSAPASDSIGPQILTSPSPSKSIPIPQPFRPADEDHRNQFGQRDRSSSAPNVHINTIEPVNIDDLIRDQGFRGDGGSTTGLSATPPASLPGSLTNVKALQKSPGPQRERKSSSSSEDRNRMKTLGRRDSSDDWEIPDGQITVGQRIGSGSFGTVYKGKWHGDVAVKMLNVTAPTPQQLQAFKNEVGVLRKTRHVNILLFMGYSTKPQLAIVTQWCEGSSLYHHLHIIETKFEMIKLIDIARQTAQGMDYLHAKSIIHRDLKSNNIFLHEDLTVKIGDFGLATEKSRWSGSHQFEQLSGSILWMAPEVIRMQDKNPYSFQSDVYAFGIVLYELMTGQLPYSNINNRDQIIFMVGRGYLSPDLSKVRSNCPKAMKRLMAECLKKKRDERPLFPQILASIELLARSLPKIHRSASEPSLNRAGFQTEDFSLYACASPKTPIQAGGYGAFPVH
Sequence of Calcium/calmodulin-dependent protein kinase type II subunit gamma (Homo sapiens) (Q13555 whole entry): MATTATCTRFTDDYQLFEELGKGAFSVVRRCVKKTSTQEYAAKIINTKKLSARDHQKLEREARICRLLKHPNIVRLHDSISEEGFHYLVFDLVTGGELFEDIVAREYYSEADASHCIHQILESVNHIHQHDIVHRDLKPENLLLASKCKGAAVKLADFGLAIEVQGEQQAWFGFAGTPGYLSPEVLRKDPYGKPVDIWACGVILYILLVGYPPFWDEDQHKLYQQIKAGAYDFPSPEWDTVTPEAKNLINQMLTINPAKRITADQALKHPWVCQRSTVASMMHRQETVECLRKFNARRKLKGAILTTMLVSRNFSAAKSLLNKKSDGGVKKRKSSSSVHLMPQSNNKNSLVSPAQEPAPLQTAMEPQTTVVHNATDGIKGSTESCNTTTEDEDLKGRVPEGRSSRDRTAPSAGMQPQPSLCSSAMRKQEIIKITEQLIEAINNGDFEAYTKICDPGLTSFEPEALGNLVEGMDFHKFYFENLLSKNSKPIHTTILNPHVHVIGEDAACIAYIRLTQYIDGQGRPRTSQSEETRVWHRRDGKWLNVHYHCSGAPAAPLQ

With CCN1CCN(Cc2ccc(NC(=O)c3ccc(C)c(Oc4ccnc5[nH]ccc45)c3)cc2C(F)(F)F)CC1 the inhibition [1] was 4%, the inhibition [2] was 10.8% and the inhibition [3] was 5.5%. For the same compound, the inhibition [4] was 86.8% and the inhibition [5] was “inactive”.

With CNc1cc(Oc2cc(C(=O)Nc3cc(N4CCN(C)CC4)cc(C(F)(F)F)c3)ccc2C)ncn1 the inhibition [6] was 20.3% and the inhibition [7] was 0.7%.

CCN1CCN(Cc2ccc(NC(=O)c3ccc(C)c(/C=C/c4cnc5[nH]ccc5c4OC)c3)cc2C(F)(F)F)CC1 was tested, and the inhibition [8] was 0.7%.
